Calls of active or inactive are those of the source.

The results in this text go back to ChEMBL document CHEMBL1201862, “PubChem BioAssay data set” (2004).

For test [1], the target named is RNA-editing ligase 1, mitochondrial (Trypanosoma brucei brucei, UniProt P86926). In words: inhibition of trypanosome RNA editing ligase – biochemical, fluorescence, Trypanosoma brucei, dose response (AID 1117295). Format: functional.
The next test concerns the target T1, Insulin-degrading enzyme (Homo sapiens, UniProt P14735).
T1 sequence (P14735 whole entry): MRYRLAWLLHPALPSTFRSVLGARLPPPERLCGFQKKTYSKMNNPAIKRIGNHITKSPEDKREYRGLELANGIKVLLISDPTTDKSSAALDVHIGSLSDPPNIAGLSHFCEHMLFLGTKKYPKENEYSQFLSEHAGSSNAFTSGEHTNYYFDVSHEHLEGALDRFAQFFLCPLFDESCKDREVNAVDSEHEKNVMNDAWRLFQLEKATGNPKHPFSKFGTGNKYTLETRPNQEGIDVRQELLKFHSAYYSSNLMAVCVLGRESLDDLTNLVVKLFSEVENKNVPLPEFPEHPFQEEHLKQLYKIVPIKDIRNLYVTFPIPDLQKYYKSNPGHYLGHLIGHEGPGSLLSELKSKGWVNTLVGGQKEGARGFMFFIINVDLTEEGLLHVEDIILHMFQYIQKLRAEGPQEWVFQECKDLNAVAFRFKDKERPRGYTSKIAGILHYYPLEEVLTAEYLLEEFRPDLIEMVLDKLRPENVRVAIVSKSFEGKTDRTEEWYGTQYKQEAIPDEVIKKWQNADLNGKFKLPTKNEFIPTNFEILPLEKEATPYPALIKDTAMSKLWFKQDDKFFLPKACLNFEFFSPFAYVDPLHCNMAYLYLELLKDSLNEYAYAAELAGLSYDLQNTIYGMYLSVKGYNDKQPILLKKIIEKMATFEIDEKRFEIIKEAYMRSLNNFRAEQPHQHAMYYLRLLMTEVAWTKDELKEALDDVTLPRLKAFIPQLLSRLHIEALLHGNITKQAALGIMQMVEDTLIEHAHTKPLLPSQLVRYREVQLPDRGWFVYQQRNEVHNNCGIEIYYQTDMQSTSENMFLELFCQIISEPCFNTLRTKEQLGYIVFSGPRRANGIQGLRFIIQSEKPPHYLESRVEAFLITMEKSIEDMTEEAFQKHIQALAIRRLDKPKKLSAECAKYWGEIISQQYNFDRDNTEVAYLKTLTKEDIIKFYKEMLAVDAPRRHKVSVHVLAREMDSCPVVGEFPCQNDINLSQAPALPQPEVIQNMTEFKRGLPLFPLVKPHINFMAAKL
The test can be described thus: Dose Response: Fluorescence polarization-based cell-based high throughput dose response assay for inhibitors of insulin-degrading enzyme (IDE). [Related pubchem assays: 434962 (Primary screen (IDE inhibitors in singlicate)), 449730 (Counterscreen (Cytotoxicity in triplicate)), 435028 (Confirmation (IDE inhibitors in triplicate)), 434984 (Summary …. Format: functional.

A short description of test [2]: Counterscreen for IDE inhibitors: Luminescence-based cell-based high throughput dose response assay to identify compounds that are cytotoxic to HEK cells. [Related pubchem assays: 434962 (Primary screen (IDE inhibitors in singlicate)), 449730 (Counterscreen (Cytotoxicity in triplicate)), 435028 (Confirmation (IDE inhibitors in triplicate)) …. Particulars: HEK293. In kind it is functional.

The nature of test [3]: non-specific 3'UTR reporter inhibition in Clone20-Shn3RL – cell-based, Renilla luciferase, cherry-picked, counter-screen for Shn3 inhibitor project, dose response (AID 624133). Format: functional. A general note: A counterscreen serves to expose hits that act by an unwanted route or on another target.
The target in a further test is Protein Wnt-3a (Mus musculus, UniProt P27467). In words: antagonism of Wnt3a pathway luciferase reporter – Wnt-LIGHT cells, luminescence, selectivity assay for Gli-SUFU antagonist project, dose response (AID 651570).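 Note: Wnt-LIGHT reporter cells stimulated with conditioned medium from Wnt3a-producing cells.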 To be noted: read-out: IC50_Mean. Format: functional. (A reporter such as luciferase makes a cellular process visible.)
Chain of Protein Wnt-3a (P27467 whole entry): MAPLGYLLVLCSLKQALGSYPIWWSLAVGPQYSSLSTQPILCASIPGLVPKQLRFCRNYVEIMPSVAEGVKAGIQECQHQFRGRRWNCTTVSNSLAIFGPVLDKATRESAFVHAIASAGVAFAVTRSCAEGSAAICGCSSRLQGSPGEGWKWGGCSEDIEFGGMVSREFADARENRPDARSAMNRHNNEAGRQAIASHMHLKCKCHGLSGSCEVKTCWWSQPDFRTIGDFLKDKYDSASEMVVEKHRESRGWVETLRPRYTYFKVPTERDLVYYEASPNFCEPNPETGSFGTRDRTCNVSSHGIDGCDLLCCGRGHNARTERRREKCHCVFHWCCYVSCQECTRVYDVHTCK
Test [4] can be described thus: loss of viability in HepG2 cells – cell-based, CellTiter-Glo, cherry-picked, cytotoxicity control for Shn3 inhibitor project, dose response (AID 624134). Format: functional. For orientation: In ATP-based viability assays light output follows the ATP content of the culture.
The target of test [5] is COUP transcription factor 2 (Homo sapiens, UniProt P24468). In words: Luminescence-based cell-based high throughput dose response assay to identify inhibitors of COUP-TFII (NR2F2). Format: functional.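 Note: HEK293 cells transiently cotransfected with COUP-TFII expression vector and reporter; luciferase reporter luminescence driven by COUP-TFII from the pX2-168 reporter plasmid.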
Chain of COUP transcription factor 2 (P24468 whole entry): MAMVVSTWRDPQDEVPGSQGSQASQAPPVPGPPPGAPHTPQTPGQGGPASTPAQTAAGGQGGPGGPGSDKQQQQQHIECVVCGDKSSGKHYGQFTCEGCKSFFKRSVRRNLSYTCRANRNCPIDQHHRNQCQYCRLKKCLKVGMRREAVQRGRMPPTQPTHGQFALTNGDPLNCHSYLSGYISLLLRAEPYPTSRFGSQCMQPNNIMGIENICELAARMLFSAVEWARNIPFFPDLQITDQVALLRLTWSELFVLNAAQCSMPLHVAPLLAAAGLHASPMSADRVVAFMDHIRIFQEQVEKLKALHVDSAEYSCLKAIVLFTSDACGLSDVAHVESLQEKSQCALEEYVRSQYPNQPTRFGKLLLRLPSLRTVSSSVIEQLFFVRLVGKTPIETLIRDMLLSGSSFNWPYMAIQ
The target in test [6] is T2, Bcl-2-related protein A1 (Mus musculus, UniProt Q07440).
T2 sequence (Q07440 whole entry): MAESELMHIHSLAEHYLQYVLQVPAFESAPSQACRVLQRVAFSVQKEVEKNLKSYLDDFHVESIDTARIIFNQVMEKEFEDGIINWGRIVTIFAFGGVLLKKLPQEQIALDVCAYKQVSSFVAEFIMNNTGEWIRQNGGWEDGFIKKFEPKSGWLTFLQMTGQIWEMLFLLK
In words: displacement of Bid BH3 peptide from Bfl-1 – biochemical, fluorescence polarization, FITC-Bid, mouse, primary screen (AID 432).

The target of test [7] is T2, Bcl-2-related protein A1. In words: small-molecule antagonists of Bfl-1/BH3 interaction – biochemical, TR-FRET, mouse Bfl-1, confirmation (AID 621).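 Note: TR-FRET binding of GST-Bfl-1 to FITC-labelled Bid peptide via terbium antibody.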
In another test the target is T3, Mucolipin-3 (Homo sapiens, UniProt Q8TDD5).
T3 sequence (Q8TDD5 whole entry): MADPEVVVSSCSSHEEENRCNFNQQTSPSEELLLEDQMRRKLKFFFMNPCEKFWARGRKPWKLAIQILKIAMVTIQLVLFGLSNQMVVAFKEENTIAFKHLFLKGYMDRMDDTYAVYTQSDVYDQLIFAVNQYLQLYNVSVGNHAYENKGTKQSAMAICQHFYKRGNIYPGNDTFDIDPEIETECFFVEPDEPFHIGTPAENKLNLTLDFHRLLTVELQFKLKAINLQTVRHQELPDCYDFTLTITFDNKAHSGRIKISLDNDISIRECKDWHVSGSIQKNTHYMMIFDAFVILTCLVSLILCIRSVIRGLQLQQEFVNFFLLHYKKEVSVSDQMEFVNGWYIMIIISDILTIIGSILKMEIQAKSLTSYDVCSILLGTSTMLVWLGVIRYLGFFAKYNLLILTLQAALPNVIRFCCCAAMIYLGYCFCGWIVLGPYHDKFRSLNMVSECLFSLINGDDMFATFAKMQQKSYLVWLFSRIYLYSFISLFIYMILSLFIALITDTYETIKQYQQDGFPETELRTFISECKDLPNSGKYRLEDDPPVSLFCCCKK
The test can be described thus: Dose response cell-based high-throughput screening assay for agonists of the transient receptor potential channel ML3 (TRPML3). [Related pubchem assays: 1526, 1424, 1448 ]. Format: functional.

For the next test, the target named is Ion channel NompC (Danio rerio, UniProt Q7T1G6). In words: Fluorescence counterscreen assay for TRPML3 agonists: dose response cell-based high-throughput screening assay to identify agonists of the transient receptor potential channel N1 (TRPN1). [Related pubchem assays: 1526, 1424, 1448 ]. Format: functional.
Chain of Ion channel NompC (Q7T1G6 whole entry): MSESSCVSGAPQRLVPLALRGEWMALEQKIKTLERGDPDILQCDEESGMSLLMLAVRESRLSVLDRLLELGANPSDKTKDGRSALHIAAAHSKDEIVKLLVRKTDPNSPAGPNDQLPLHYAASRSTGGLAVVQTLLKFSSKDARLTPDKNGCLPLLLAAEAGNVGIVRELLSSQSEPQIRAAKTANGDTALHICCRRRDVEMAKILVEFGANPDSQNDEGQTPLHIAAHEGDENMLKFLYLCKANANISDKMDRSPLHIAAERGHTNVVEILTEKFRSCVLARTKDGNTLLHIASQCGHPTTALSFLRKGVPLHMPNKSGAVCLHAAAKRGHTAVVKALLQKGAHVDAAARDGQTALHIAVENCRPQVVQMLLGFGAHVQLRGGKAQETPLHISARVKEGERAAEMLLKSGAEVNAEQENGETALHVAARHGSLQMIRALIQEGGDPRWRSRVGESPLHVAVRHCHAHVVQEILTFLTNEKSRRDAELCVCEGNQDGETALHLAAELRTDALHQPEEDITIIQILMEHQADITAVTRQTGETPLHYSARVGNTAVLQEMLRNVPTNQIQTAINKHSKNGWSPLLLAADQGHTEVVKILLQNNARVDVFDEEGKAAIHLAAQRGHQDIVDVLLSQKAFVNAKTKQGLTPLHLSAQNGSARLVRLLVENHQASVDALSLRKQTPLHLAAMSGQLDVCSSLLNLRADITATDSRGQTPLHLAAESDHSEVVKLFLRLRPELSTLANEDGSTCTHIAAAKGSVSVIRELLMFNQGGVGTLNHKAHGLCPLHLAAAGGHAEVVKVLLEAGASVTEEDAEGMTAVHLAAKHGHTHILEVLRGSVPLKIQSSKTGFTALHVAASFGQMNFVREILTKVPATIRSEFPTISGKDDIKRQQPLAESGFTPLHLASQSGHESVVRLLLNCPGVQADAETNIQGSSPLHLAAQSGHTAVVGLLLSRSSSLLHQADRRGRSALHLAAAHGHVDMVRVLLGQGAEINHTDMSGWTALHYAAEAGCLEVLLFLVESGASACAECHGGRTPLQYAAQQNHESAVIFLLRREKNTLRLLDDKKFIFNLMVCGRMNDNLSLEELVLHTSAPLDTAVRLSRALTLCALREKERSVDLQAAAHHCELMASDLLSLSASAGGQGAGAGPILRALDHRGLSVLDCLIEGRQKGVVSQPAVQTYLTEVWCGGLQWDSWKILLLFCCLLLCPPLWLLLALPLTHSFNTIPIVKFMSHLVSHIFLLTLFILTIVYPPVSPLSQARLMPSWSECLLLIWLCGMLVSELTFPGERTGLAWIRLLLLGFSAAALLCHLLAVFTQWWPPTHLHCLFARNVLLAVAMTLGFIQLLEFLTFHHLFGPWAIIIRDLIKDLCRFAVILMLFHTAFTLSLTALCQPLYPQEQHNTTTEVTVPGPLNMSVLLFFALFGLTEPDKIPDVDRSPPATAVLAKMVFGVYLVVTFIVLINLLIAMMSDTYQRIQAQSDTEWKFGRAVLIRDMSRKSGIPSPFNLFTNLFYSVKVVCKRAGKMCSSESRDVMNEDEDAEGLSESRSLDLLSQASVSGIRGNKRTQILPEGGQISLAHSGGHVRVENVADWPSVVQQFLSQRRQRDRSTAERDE
In a further test the test system is HeLa. The test can be described thus: Cytotoxicity counterscreen assay for transcriptional activators of heat shock protein 70 (Hsp70). [Related pubchem assays: 1203, 1252 ]. Format: functional. Particulars: Homo sapiens.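 Note: cells exposed to compound for 16 hours before readout.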
In test [8] the target is Mitogen-activated protein kinase 10 (Homo sapiens, UniProt P53779). The test can be described thus: Dose response biochemical screening assay for inhibitors of c-Jun N-Terminal Kinase 3 (JNK3). [Related pubchem assays: 746 ].
Chain of Mitogen-activated protein kinase 10 (P53779 whole entry): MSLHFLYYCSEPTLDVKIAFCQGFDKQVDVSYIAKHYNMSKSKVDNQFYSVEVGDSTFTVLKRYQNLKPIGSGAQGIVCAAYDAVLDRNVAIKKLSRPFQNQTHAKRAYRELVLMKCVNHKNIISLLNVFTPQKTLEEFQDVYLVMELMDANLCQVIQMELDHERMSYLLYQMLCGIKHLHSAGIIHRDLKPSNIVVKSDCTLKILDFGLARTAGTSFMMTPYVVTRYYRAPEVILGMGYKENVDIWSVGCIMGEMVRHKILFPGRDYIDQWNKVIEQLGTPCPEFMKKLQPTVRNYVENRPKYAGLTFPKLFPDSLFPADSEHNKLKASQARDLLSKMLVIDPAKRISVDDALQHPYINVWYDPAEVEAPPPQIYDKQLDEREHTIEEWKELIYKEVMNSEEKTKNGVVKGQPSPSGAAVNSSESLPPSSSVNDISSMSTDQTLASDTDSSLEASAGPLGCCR

Chain of RNA-editing ligase 1, mitochondrial (P86926 whole entry): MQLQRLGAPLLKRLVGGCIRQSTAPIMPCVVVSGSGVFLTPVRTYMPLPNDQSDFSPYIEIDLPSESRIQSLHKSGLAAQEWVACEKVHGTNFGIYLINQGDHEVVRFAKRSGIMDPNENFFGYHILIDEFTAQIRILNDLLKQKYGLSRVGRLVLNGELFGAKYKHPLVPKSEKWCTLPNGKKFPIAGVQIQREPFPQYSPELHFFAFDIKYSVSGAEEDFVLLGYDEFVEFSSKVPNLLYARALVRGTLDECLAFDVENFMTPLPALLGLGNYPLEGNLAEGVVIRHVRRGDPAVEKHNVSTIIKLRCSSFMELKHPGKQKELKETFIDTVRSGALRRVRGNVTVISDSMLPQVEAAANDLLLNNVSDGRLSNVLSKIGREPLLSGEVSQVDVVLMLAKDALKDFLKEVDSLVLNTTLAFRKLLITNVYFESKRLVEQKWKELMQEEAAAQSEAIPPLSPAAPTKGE

For the compound `COC(=O)C1=C(C)N(Cc2ccccc2C(F)(F)F)C(NCC2CC2)=NC1c1ccc(F)cc1` (stereo unspecified), in test [1], the IC50 is > 96.6 µM (inactive).
As to `Cc1c(-c2cccc(Cl)c2)nc2ccccc2c1C(=O)OCC(=O)N(C)C1CCS(=O)(=O)C1` (stereo unspecified), the IC50 is recorded as > 55.9 µM (not active) against Insulin-degrading enzyme and 36.1 µM (not active) in test [2].
For the compound `CC[C@@H](O)C[C@H]1CCC[C@@]2(C[C@@H]3OC(=O)/C=C/[C@@](C)(O)[C@@H](O)[C@H](C)[C@@H](O)[C@H](OC4CCC(N(C)C)C(C)O4)[C@@H](O)[C@](C)(O)CCCCC/C=C/[C@@H]4CC(C)(C)O[C@@]4(O)C[C@H](O2)[C@H]3C)O1` (stereo partly specified), the AC50 (in general, the midpoint of the concentration-response curve, whichever way the signal moves) in test [3] was < 0.26 µM (active); in test [4], 20.1 µM (active). Also, the IC50 on Protein Wnt-3a is 0.0061 µM (active); in test [5], > 0.013 µM (active).
Take `COC(=O)C1=C(C)N(Cc2ccccc2C(F)(F)F)C(NCc2ccc3c(c2)OCO3)=NC1c1ccc(C(F)(F)F)cc1` (stereo unspecified): the IC50 in test [1] was > 96.6 µM (inactive).
Take `COCCn1cnc2cc(C)c(C)cc21`: the IC50 at Bcl-2-related protein A1 [6] and against Bcl-2-related protein A1 [7] was > 100 µM (not active) throughout.
As to `CC1=CC(C)(C)N(C(=O)CSc2nnc(-c3ccccc3)o2)c2ccc(C)cc21`, the EC50 (usually the concentration giving half of the maximal effect) on Mucolipin-3 is 4.18 µM (active); at Ion channel NompC, > 29.9 µM (not active).
For the compound `Cc1cccc(-c2noc(CCCC(=O)N3CCOCC3)n2)c1`, the half-maximal cytotoxic concentration (CC50) – broadly, the concentration that lowers cell viability or growth by half – with HeLa is > 99 µM (not active).
With `O=C(CSc1ncccc1-c1nc2ccccc2[nH]1)N1CCN(c2ccccc2F)CC1`, in [8], the IC50 was 55.9 µM (not active).
With `Cc1ccc(S(=O)(=O)N(CC(=O)N2CCCCC2)c2cccc(C)c2)cc1`, the EC50 was 1.24 µM (active) at Mucolipin-3 and > 29.9 µM (not active) at Ion channel NompC.
